Reference: patent publication US12157730B2, “Heteroaryl derivative, method for producing same, and pharmaceutical composition comprising same as effective component” (VORONOI INC., priority 2019, dated 2024)

Biological target: T1, Ba/F3 cell EGFR Exon20 ins NPH (Homo sapiens, UniProt P00533, INS773NPH)
T1 construct: expressed in transfected cells; host or cells: Ba/F3
Experiment: Ba/F3 cell proliferation suppression, EGFR Exon20 ins NPH
Type: cell-based
Conditions: GI50 class; Ba/F3 cell line with NPH inserted at Exon20 of EGFR; 72 hours
Outline: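 After 72 h compound exposure (twelve 3-fold steps, 0.3 nM–50 um final), live cells were measured by CellTiter-Glo luminescence and growth expressed as % of control to derive GI50. Cells were seeded at 3000–5000 per well a day earlier; Ba/F3 medium contained IL-3; three repeats.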

C=CC(=O)Nc1cc(Nc2cc(N3OCC[C@@H]3c3ccccc3)ncn2)c(OC)cc1N1CCC(N2C[C@H]3C[C@@H]2CN3CC)CC1 [compound 738, N-(2-(4-((1R,4R)-5-ethyl-2,5-diazabicyclo [2.2.1]heptane-2-yl)piperidine-1-yl)-4-methoxy-5-((6-((R)-3-phenylisoxazolidine-2-yl)pyrimidine-4-yl)amino)phenyl) acrylamide]
Ba/F3 (NPH) Activity: A (GI50 < 50 nM)

C=CC(=O)Nc1cc(Nc2cc(N3OCC[C@@H]3c3ccc(F)cc3F)ncn2)c(OC)cc1N1CCC(N2C[C@H]3C[C@@H]2CN3C)CC1 [compound 473, N-(5-((6-((R)-3-(2,4-difluorophenyl)isoxazolidine-2-yl)pyrimidine-4-yl)amino)-4-methoxy-2-(4-((1R,4R)-5-methyl-2,5-diazabicyclo[2.2.1]heptane-2-yl)piperidine-1-yl)phenyl)acrylamide]
Ba/F3 (NPH) Activity: A (GI50 < 50 nM)

C=CC(=O)Nc1cc(Nc2cc(N3OCC[C@H]3Cc3ccccc3)ncn2)c(OC)cc1N1CCN(C2CCOCC2)CC1 [compound 975, N-(5-((6-((R)-3-benzylisoxazolidine-2-yl)pyrimidine-4-yl)amino)-4-methoxy-2-(4-(tetrahydro-2H-pyran-4-yl)piperazine-1-yl)phenyl)acrylamide]
Ba/F3 (NPH) Activity: C (500 nM ≤ GI50 < 5000 nM)

C=CC(=O)Nc1cc(Nc2cc(N3OCC[C@@H]3Cc3cccnc3)ncn2)c(OC)cc1N1CCC(N2CCN(C3CC3)[C@@H](C)C2)CC1 [compound 1057, N-(2-(4-((S)-4-cyclopropyl-3-methylpiperazine-1-yl)piperidine-1-yl)-4-methoxy-5-((6-((S)-3-(pyridine-3-ylmethyl)isoxazolidine-2-yl)pyrimidine-4-yl)amino)phenyl)acrylamide]
Ba/F3 (NPH) Activity: B (50 nM ≤ GI50 < 500 nM)

C=CC(=O)Nc1cc(Nc2cc(N3OCC[C@@H]3c3ccc(C)nc3)ncn2)c(OC)cc1N1CCN(C2CCN(C)CC2)CC1 [Example 48, N-(4-methoxy-2-(4-(1-methylpiperidine-4-yl)piperazine-1-yl)-5-((6-((R)-3-(6-methylpyridine-3-yl)isoxazolidine-2-yl)pyrimidine-4-yl)amino)phenyl) acrylamide]
Ba/F3 (NPH) Activity: B (50 nM ≤ GI50 < 500 nM)

C=CC(=O)Nc1cc(Nc2cc(N3OCC[C@@H]3c3ccccc3)ncn2)c(OC)cc1N1CCC(N(C)CCOC)CC1 [compound 736, N-(4-methoxy-2-(4-((2-methoxyethyl) (methyl)amino)piperidine-1-yl)-5-((6-((R)-3-phenylisoxazolidine-2-yl)pyrimidine-4-yl)amino)phenyl) acrylamide]
Ba/F3 (NPH) Activity: A (GI50 < 50 nM)

C=CC(=O)Nc1cc(Nc2cc(N3OCC[C@@H]3c3ccc(C)nc3)ncn2)c(OC)cc1N1CCC(N2CC[C@@H](N(C)C)C2)CC1 [Example 231, N-(2-(4-((R)-3-(dimethylamino)pyrolidine-1-yl)piperidine-1-yl)-4-methoxy-5-((6-((R)-3-(6-methylpyridine-3-yl)isoxazolidine-2-yl)pyrimidine-4-yl)amino)phenyl)acrylamide]
Ba/F3 (NPH) Activity: B (50 nM ≤ GI50 < 500 nM)

C=CCN1CCN(C2CCN(c3cc(OC)c(Nc4cc(N5OCC[C@@H]5c5ccc(F)c(Cl)c5)ncn4)cc3NC(=O)C=C)CC2)CC1 [Example 89, N-(2-(4-(4-allylpiperazine-1-yl)piperidine-1-yl)-5-((6-((R)-3-(3-chloro-4-fluorophenyl)isoxazolidine-2-yl)pyrimidine-4-yl)amino)-4-methoxyphenyl) acrylamide]
Ba/F3 (NPH) Activity: A (GI50 < 50 nM)

C=CC(=O)Nc1cc(Nc2cc(N3OCC[C@@H]3Cc3cccc(Cl)c3C)ncn2)c(OC)cc1N1CCN(C2CC2)CC1 [compound 1026, N-(5-((6-((S)-3-(3-chloro-2-methylbenzyl)isoxazolidine-2-yl)pyrimidine-4-yl)amino)-2-(4-cyclopropylpiperazine-1-yl)-4-methoxyphenyl) acrylamide]
Ba/F3 (NPH) Activity: B (50 nM ≤ GI50 < 500 nM)

C=CC(=O)Nc1cc(Nc2cc(N3OCC[C@@H]3c3ccc(F)c(F)c3)ncn2)c(OC)cc1N1CCC(N2CCN(C(C)=O)CC2)CC1 [compound 544, N-(2-(4-(4-acetylpiperazine-1-yl)piperidine-1-yl)-5-((6-((R)-3-(3,4-difluorophenyl)isoxazolidine-2-yl)pyrimidine-4-yl)amino)-4-methoxyphenyl) acrylamide]
Ba/F3 (NPH) Activity: A (GI50 < 50 nM)

C=CC(=O)Nc1cc(Nc2cc(N3OCC[C@H]3c3c(F)cccc3F)ncn2)c(OC)cc1N1C[C@@H]2CCN(C)[C@@H]2C1 [compound 899, N-(5-((6-((S)-3-(2,6-difluorophenyl)isoxazolidine-2-yl)pyrimidine-4-yl)amino)-4-methoxy-2-((3aS,6aS)-1-methylhexahydropyrrolo [3,4-b]pyrrole-5(1H)-yl)phenyl) acrylamide]
Ba/F3 (NPH) Activity: C (500 nM ≤ GI50 < 5000 nM)

C=CC(=O)Nc1cc(Nc2cc(N3OCC[C@@H]3c3cccc(Cl)c3Cl)ncn2)c(OC)cc1N1CC[C@@H](N(C)C)C1 [compound 526, N-(5-((6-((R)-3-(2,3-dichlorophenyl)isoxazolidine-2-yl)pyrimidine-4-yl)amino)-2-((R)-3-(dimethylamino)pyrolidine-1-yl)-4-methoxyphenyl) acrylamide]
Ba/F3 (NPH) Activity: A (GI50 < 50 nM)

C=CC(=O)Nc1cc(Nc2cc(N3OCC[C@@H]3c3ccccc3)ncn2)c(OC)cc1N1CCC(N2CCC(N(C)C)CC2)CC1 [compound 740, N-(2-(4-(dimethylamino)-[1,4'-bipiperidine]-1'-yl)-4-methoxy-5-((6-((R)-3-phenylisoxazolidine-2-yl)pyrimidine-4-yl)amino)phenyl)acrylamide]
Ba/F3 (NPH) Activity: A (GI50 < 50 nM)

C=CC(=O)Nc1cc(Nc2cc(N3OCC[C@@H]3c3cccc(C)c3F)ncn2)c(OC)cc1N1CCC(N2C[C@@H]3C[C@H]2CO3)CC1 [compound 362, N-(2-(4-((1S,4S)-2-oxa-5-azabicyclo[2.2.1]heptane-5-yl)piperidine-1-yl)-5-((6-((R)-3-(2-fluoro-3-methylphenyl)isoxazolidine-2-yl)pyrimidine-4-yl)amino)-4-methoxyphenyl) acrylamide]
Ba/F3 (NPH) Activity: A (GI50 < 50 nM)

C=CC(=O)Nc1cc(Nc2cc(N3OCC[C@@H]3Cc3ccccc3)ncn2)c(OC)cc1N1CCN(C2COC2)CC1 [compound 958, N-(5-((6-((S)-3-benzylisoxazolidine-2-yl)pyrimidine-4-yl)amino)-4-methoxy-2-(4-(oxetane-3-yl)piperazine-1-yl)phenyl)acrylamide]
Ba/F3 (NPH) Activity: A (GI50 < 50 nM)

C=CC(=O)Nc1cc(Nc2cc(N3OCC[C@@H]3c3cccc(F)c3)ncn2)c(OC)cc1N1CCC(N2CCN(C3CC3)CC2)CC1 [Example 64, N-(2-(4-(4-cyclopropylpiperazine-1-yl)piperidine-1-yl)-5-((6-((R)-3-(3-fluorophenyl)isoxazolidine-2-yl)pyrimidine-4-yl)amino)-4-methoxyphenyl) acrylamide]
Ba/F3 (NPH) Activity: A (GI50 < 50 nM)

C=CC(=O)Nc1cc(Nc2cc(N3OCC[C@@H]3c3ccc(F)c(Cl)c3)ncn2)c(OC)cc1N1CCC(N2C[C@@H](C)N(CC)[C@@H](C)C2)CC1 [compound 370, N-(5-((6-((R)-3-(3-chloro-4-fluorophenyl)isoxazolidine-2-yl)pyrimidine-4-yl)amino)-2-(4-((3S,5R)-4-ethyl-3,5-dimethylpiperazine-1-yl)piperidine-1-yl)-4-methoxyphenyl) acrylamide]
Ba/F3 (NPH) Activity: A (GI50 < 50 nM)

C=CC(=O)Nc1cc(Nc2cc(N3OCC[C@@H]3c3ccccc3)ncn2)c(OC)cc1N1CCC(N2CC[C@H](N(C)C)C2)CC1 [Example 286, N-(2-(4-((S)-3-(dimethylamino)pyrolidine-1-yl)piperidine-1-yl)-4-methoxy-5-((6-((R)-3-phenylisoxazolidine-2-yl)pyrimidine-4-yl)amino)phenyl) acrylamide]
Ba/F3 (NPH) Activity: A (GI50 < 50 nM)

C=CC(=O)Nc1cc(Nc2cc(N3OCC[C@@H]3c3ccc(Cl)cc3)ncn2)c(OC)cc1N1CCC(N2CCN(CC)CC2)CC1 [Example 254, N-(5-((6-((R)-3-(4-chlorophenyl)isoxazolidine-2-yl)pyrimidine-4-yl)amino)-2-(4-(4-ethylpiperazine-1-yl)piperidine-1-yl)-4-methoxyphenyl) acrylamide]
Ba/F3 (NPH) Activity: A (GI50 < 50 nM)

C=CC(=O)Nc1cc(Nc2cc(N3OCC[C@@H]3c3ccc(C)nc3)ncn2)c(OC)cc1N(C)CCOC [Example 223, N-(4-methoxy-2-((2-methoxyethyl) (methyl)amino)-5-((6-((R)-3-(6-methylpyridine-3-yl)isoxazolidine-2-yl)pyrimidine-4-yl)amino)phenyl)acrylamide]
Ba/F3 (NPH) Activity: B (50 nM ≤ GI50 < 500 nM)

C=CC(=O)Nc1cc(Nc2cc(N3OCC[C@@H]3c3cccc(OC)c3)ncn2)c(OC)cc1N1CCC(N2CCN(CCC)CC2)CC1 [compound 549, N-(4-methoxy-5-((6-((R)-3-(3-methoxyphenyl)isoxazolidine-2-yl)pyrimidine-4-yl)amino)-2-(4-(4-propylpiperazine-1-yl)piperidine-1-yl)phenyl) acrylamide]
Ba/F3 (NPH) Activity: A (GI50 < 50 nM)

C=CC(=O)Nc1cc(Nc2cc(N3OCC[C@H]3c3c(F)cccc3F)ncn2)c(OC)cc1N1CCC(N2CCOCC2)CC1 [compound 897, N-(5-((6-((S)-3-(2,6-difluorophenyl)isoxazolidine-2-yl)pyrimidine-4-yl)amino)-4-methoxy-2-(4-morpholinopiperidine-1-yl)phenyl)acrylamide]
Ba/F3 (NPH) Activity: C (500 nM ≤ GI50 < 5000 nM)

C=CC(=O)Nc1cc(Nc2cc(N3OCC[C@@H]3c3cccc(Cl)c3C)ncn2)c(OC)cc1N(C)CCN(C)C [compound 583, N-(5-((6-((R)-3-(3-chloro-2-methylphenyl)isoxazolidine-2-yl)pyrimidine-4-yl)amino)-2-((2-(dimethylamino)ethyl)(methyl)amino)-4-methoxyphenyl) acrylamide]
Ba/F3 (NPH) Activity: A (GI50 < 50 nM)
